This assay concerns OVCAR-3. Put plainly: Growth inhibition of human OVCAR-3 cells by MTT assay. In kind it is functional, cell-based. On the technique in general: Tetrazolium dyes change colour on reduction, which living cells bring about.

Consider four molecules from ChEMBL document CHEMBL1157519, “Cytotoxic acylated triterpene saponins from the husks of Xanthoceras sorbifolia” (J Nat Prod, 2008).

Turning to `C/C=C(/C)C(=O)O[C@H]1[C@H](OC(=O)C(C)C)[C@]2(CO)[C@H](O)[C@H](O)[C@]3(C)C(=CC[C@@H]4[C@@]5(C)CC[C@H](O[C@@H]6O[C@H](C(=O)O)[C@@H](O)[C@H](O[C@@H]7O[C@@H](CO)[C@H](O)[C@H]7O)[C@H]6O[C@@H]6O[C@H](CO)[C@H](O)[C@H](O)[C@H]6O)[C@@H](C)[C@@H]5CC[C@]43C)[C@@H]2CC1(C)C`, the IC50 – broadly, the concentration that inhibits the measured activity by half – worked out at 4.2 µM.

For `C/C=C(/C)C(=O)O[C@H]1[C@H](OC(=O)/C(C)=C\C)[C@]2(CO)[C@H](O)C[C@]3(C)C(=CC[C@@H]4[C@@]5(C)CC[C@H](O[C@@H]6O[C@H](C(=O)O)[C@@H](O)[C@H](O[C@@H]7O[C@@H](CO)[C@H](O)[C@H]7O)[C@H]6O[C@@H]6O[C@H](CO)[C@H](O)[C@H](O)[C@H]6O)[C@@H](C)[C@@H]5CC[C@]43C)[C@@H]2CC1(C)C`, inhibition was half-maximal at 4.8 µM (IC50).

`C/C=C(/C)C(=O)O[C@H]1[C@H](O)[C@]2(COC(=O)C(C)CC)[C@H](O)[C@H](O)[C@]3(C)C(=CC[C@@H]4[C@@]5(C)CC[C@H](O[C@@H]6O[C@H](C(=O)O)[C@@H](O)[C@H](O[C@@H]7O[C@@H](CO)[C@H](O)[C@H]7O)[C@H]6O[C@@H]6O[C@H](CO)[C@@H](O)[C@H](O)[C@H]6O)[C@@H](C)[C@@H]5CC[C@]43C)[C@@H]2CC1(C)C` (some centres undefined) registered an IC50 of 13.1 µM.

The molecule `C/C=C(/C)C(=O)O[C@H]1[C@H](OC(=O)/C(C)=C\C)[C@]2(CO)[C@H](O)[C@H](O)[C@]3(C)C(=CC[C@@H]4[C@@]5(C)CC[C@H](O[C@@H]6O[C@H](C(=O)O)[C@@H](O)[C@H](O[C@@H]7O[C@@H](CO)[C@H](O)[C@H]7O)[C@H]6O[C@@H]6O[C@H](CO)[C@H](O)[C@H](O)[C@H]6O)[C@@H](C)[C@@H]5CC[C@]43C)[C@@H]2CC1(C)C` returned an IC50 of 4 µM.
